Target: T1, PKC-ε (Mus musculus, UniProt P16054)
T1 construct: from tissue; host or cells: brain of C57B/6 male mice
T1 sequence (P16054 1-737): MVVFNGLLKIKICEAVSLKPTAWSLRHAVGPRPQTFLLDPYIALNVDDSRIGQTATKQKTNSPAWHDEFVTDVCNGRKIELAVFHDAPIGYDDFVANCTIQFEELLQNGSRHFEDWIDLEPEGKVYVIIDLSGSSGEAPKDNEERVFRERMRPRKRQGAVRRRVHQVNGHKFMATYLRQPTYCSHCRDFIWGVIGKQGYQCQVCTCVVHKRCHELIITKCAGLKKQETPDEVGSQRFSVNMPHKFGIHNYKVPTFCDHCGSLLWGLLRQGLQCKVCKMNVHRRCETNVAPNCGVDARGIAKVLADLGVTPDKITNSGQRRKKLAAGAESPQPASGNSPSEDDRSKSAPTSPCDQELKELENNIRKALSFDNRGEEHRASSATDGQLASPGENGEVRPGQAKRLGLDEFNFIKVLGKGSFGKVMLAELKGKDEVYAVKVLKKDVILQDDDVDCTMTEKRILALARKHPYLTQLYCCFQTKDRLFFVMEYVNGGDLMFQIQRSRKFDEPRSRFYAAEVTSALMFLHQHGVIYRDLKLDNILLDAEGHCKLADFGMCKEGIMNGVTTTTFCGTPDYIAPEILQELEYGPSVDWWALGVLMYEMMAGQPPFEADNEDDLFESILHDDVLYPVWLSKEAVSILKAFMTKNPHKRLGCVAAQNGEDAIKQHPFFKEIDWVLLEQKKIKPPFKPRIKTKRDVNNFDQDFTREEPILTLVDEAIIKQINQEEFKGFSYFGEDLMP
Experiment: Total PKC (PKC-ε) level / downregulation in brain after i.v. bryostatin dosing regimens
Type: in vivo
Settings: mice
Protocol: FIGS. […] (A) Downregulation of brain PKCε in mice after intravenous administration of bryostatin at doses of 10 μg/m^2, 15 μg/m^2, and 25 μg/m^2 for 1-6 consecutive weeks. (B) Downregulation of brain PKCε in mice after intravenous administration of bryostatin at two different doses (i) 2×25+2 μg/m^2, and (ii) 25 μg/m^2. Dosing regimen is disclosed along the abscissa.
Mouse studies were performed using bryostatin-i in accordance with the protocol described below. The following metrics were used to evaluate dosing regimens: induction of brain postsynaptic anchoring protein PSD-95, upregulation of BDNF levels in brain, minimal downregulation of PKC-ε levels, and elevation of brain and plasma concentrations of bryostatin. Groups of 2-3 mice were formed and housed in an approved research animal facility. Water was give ad libitum. A first study involved three groups of mice with animals in each group dosed weekly for 1, 2, 3, or 6 consecutive weeks. Each group had its own control group containing the same number of mice. In this study, mice in the first, second and third groups received an intravenous (i.v.) injection of 10 μg/m^2, 15 μg/m^2, and 25 μg/m^2 dose of bryostatin respectively. For each dose, mice in that group received a single injection of bryostatin weekly for predetermined number of consecutive weeks. Following dosing, mice were sacrificed and the blood and brain of each animal was collected for further analysis.
Cells were harvested in homogenizing buffer containing 10 mM Tris-Cl (pH 7.4), 1 mM PMSF (phenylmethylsulfonyl fluoride), 1 mM EGTA, 1 mM EDTA. 50 mM NaF, and 20 μM leupeptin and were lysed by sonication. The homogenate was centrifuged at 100,000×g for 15 min at 4° C. to obtain the cytosolic fraction (supernatant) and membrane (pellet). The pellet was resuspended in the homogenizing buffer by sonication. Protein concentration was measured using the Coomassie Plus (Bradford) Protein Assay kit (Pierce, USA). Following quantification, 20 μg of protein from each sample was subjected to SDS-PAGE analysis in 4-20% gradient Tris-Glycine gel (Invitrogen, USA). The separated protein was then transferred to nitrocellulose membrane. The membrane was blocked with BSA at room temperature for 15 min and was incubated with primary antibody over night at 4° C. After the incubation, it was washed three times with TBS-T (Tris Buffered saline-Tween 20) and further incubated with alkaline phosphatase conjugated secondary antibody (Jackson Immunoresearch Laboratories. USA) at 1:10,000 dilution for 45 min. The membrane was finally washed three times with TBS-T and developed using the 1-step NBT-BCIP substrate (Pierce, USA). Western Blot was imaged in the Image Quant RT-ECL (GE Life Sciences, Piscataway, N.J.) and densitometric quantification was performed using the IMAL software (Blanchette Rockefeller Neurosciences institute, Morgantown, W. Va.). For translocation assays, PKC activation was represented as the percentage of total protein in the membrane (membrane/cytosol+membrane). […]
C57B/6 male mice weighing between 19-21 grams were obtained from Charles River and housed in cages, 1 mouse/cage in a vivarium at the Blanchette Rockefeller Neurosciences institute. Animals were allowed access to water ad libitum.
In these studies, bryostatin was administered intravenously (i.v.) by injection into the tail vein of a mouse. Stock solutions of bryostatin were prepared in dimethyl sulfoxide (DMSO). Prior to administration to a mouse, the stock DMSO solution of bryostatin was diluted to a predetermined concentration by dilution with phosphate buffered saline/saline (PBS/saline).
Three different dosing regimens (injection schedules) were compared. The dosing regimens tested were weekly dosing, dosing every other week (alternating weeks), and spaced or intermittent dosing. […]

CCC/C=C/C=C/C(=O)O[C@H]1/C(=C/C(=O)OC)C[C@H]2C[C@H]([C@@H](C)O)OC(=O)C[C@H](O)C[C@@H]3C[C@H](OC(C)=O)C(C)(C)[C@](O)(C[C@@H]4C/C(=C/C(=O)OC)C[C@H](/C=C/C(C)(C)[C@]1(O)O2)O4)O3 [Bryostatin-1]
PKC-ε downregulation (10 μg/m^2 weekly, total of 6 consecutive weeks): appeared to result in downregulation | PKC-ε downregulation (25 μg/m^2, continued dosing, 1 on/1 off and 2 on/1 off regimens): additional downregulation occurred | PKC downregulation (25 μg/m^2, rest intervals increased to three weeks (3 on/3 off)): significantly reduced PKC downregulation | PKC-ε downregulation in brain (25 μg/m^2, three consecutive weekly doses, versus lower doses): did not produce more PKC-ε downregulation | PKC (% of Control), total PKC level (cage 4: 25 μg/m^2 i.v. once weekly, 3 weeks, 24 h): 84.841 % of Control | PKC (% of Control), total PKC level (cage 5: 25 μg/m^2 i.v., 3 on/3 off/3 on (9 weeks), 24 h): 78.2 % of Control | PKC (% of Control), total PKC level (cage 6: 10 μg/m^2 i.v. once weekly, 3 weeks, 24 h): 95.197 % of Control | PKC (% of Control), total PKC level (cage 8: 10 μg/m^2 i.v. once weekly, 6 weeks, 24 h): 80.441 % of Control | PKC (% of Control), total PKC level (cage 9: 25 μg/m^2 i.v., alternating, weeks 1 and 3, 24 h): 63.02 % of Control | PKC (% of Control), total PKC level (cage 10: 25 μg/m^2 i.v., alternating, weeks 1, 3, 5, 7, 9, 24 h): 59.11 % of Control | PKC (% of Control), total PKC level (cage 11: 25 μg/m^2 i.v., weeks 1 and 2, collection week 3 (7 d delay)): 56.7 % of Control | PKC (% of Control), total PKC level (cage 12: 25/20 μg/m^2 i.v., injections weeks 1, 2, 4, 6, 8, collection week 9 (7 d delay)): 49.92 % of Control | PKC (% of Control), total PKC level (cage 18: 15 μg/m^2 i.v. once weekly, 3 weeks, 24 h): 66.430 % of Control | PKC (% of Control), total PKC level (cage 22 (regimen not listed in Tables 2/3)): 89.206 % of Control | PKC (% of Control), total PKC level (cage 24: 25 μg/m^2 i.v. once weekly, 2 weeks, 24 h): 96.723 % of Control

— patent US11173140B2, “Dosing regimens of PKC activators” (COGNITIVE RESEARCH ENTERPRISES, INC., priority 2015, dated 2021)
